Measured values as given in PubChem BioAssay (NCI).
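Cells were grown in 96-well plates and exposed to each compound for 48 hours at five concentrations; endpoints were interpolated linearly between bracketing concentrations, or set to the highest concentration if not reached. TGI marks complete inhibition of growth.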

How the values were obtained:
Experiment in all cases: NCI-60 cell line screen, 48 h
TK-10 renal = system: TK-10 renal
NCI-H460 lung = system: NCI-H460 lung
SNB-19 CNS = system: SNB-19 CNS
OVCAR-8 ovarian = system: OVCAR-8 ovarian
DMS 273 small cell lung = system: DMS 273 small cell lung
M14 melanoma = system: M14 melanoma
SK-OV-3 ovarian = system: SK-OV-3 ovarian
SF-295 CNS = system: SF-295 CNS
NCI-H522 lung = system: NCI-H522 lung
KM12 colon = system: KM12 colon
M19-MEL melanoma = system: M19-MEL melanoma
K-562 leukemia = system: K-562 leukemia
DMS 114 small cell lung = system: DMS 114 small cell lung
UACC-62 melanoma = system: UACC-62 melanoma
SF-268 CNS = system: SF-268 CNS
XF 498 CNS = system: XF 498 CNS
SK-MEL-5 melanoma = system: SK-MEL-5 melanoma
OVCAR-3 ovarian = system: OVCAR-3 ovarian
HOP-92 NSCLC = system: HOP-92 NSCLC
SK-MEL-2 melanoma = system: SK-MEL-2 melanoma
KM20L2 colon = system: KM20L2 colon
HT29 colon = system: HT29 colon
RPMI-8226 leukemia = system: RPMI-8226 leukemia
786-0 renal = system: 786-0 renal
UACC-257 melanoma = system: UACC-257 melanoma
RXF-631 renal = system: RXF-631 renal
SNB-75 CNS = system: SNB-75 CNS
CCRF-CEM leukemia = system: CCRF-CEM leukemia
ACHN renal = system: ACHN renal
COLO 205 colon = system: COLO 205 colon
OVCAR-4 ovarian = system: OVCAR-4 ovarian
U251 CNS = system: U251 CNS
A498 renal = system: A498 renal
LOX IMVI melanoma = system: LOX IMVI melanoma
LXFL 529 NSCLC = system: LXFL 529 NSCLC
RXF 393 renal = system: RXF 393 renal
HOP-62 NSCLC = system: HOP-62 NSCLC
NCI-H226 lung = system: NCI-H226 lung
HL-60(TB) leukemia = system: HL-60(TB) leukemia
CAKI-1 renal = system: CAKI-1 renal
HOP-18 NSCLC = system: HOP-18 NSCLC
IGROV1 ovarian = system: IGROV1 ovarian
MOLT-4 leukemia = system: MOLT-4 leukemia
SW-620 colon = system: SW-620 colon
A549 NSCLC = system: A549 NSCLC
HCT-15 colon = system: HCT-15 colon
UO-31 renal = system: UO-31 renal
SK-MEL-28 melanoma = system: SK-MEL-28 melanoma
MALME-3M melanoma = system: MALME-3M melanoma
OVCAR-5 ovarian = system: OVCAR-5 ovarian
SF-539 CNS = system: SF-539 CNS
EKVX NSCLC = system: EKVX NSCLC
NCI-H23 lung = system: NCI-H23 lung
SN12C renal = system: SN12C renal
SNB-78 CNS = system: SNB-78 CNS
SR leukemia = system: SR leukemia
HCC-2998 colon = system: HCC-2998 colon
HCT-116 colon = system: HCT-116 colon
DLD-1 colon = system: DLD-1 colon

C=CCN(N=O)C(=O)NCCCC(NC(C)=O)C(=O)NCc1ccccc1 (centres undefined)
TGI (TK-10 renal): > 100 µM | TGI (NCI-H460 lung): > 100 µM | TGI (SNB-19 CNS): > 100 µM | TGI (OVCAR-8 ovarian): > 100 µM | TGI (DMS 273 small cell lung): > 100 µM | TGI (M14 melanoma): > 100 µM | TGI (SK-OV-3 ovarian): > 100 µM | TGI (SF-295 CNS): > 100 µM | TGI (NCI-H522 lung): > 100 µM | TGI (KM12 colon): > 100 µM | TGI (M19-MEL melanoma): > 100 µM | TGI (K-562 leukemia): > 100 µM | TGI (DMS 114 small cell lung): > 100 µM | TGI (UACC-62 melanoma): > 100 µM | TGI (SF-268 CNS): > 100 µM | TGI (XF 498 CNS): > 100 µM | TGI (SK-MEL-5 melanoma): > 100 µM | TGI (OVCAR-3 ovarian): > 100 µM | TGI (HOP-92 NSCLC): > 100 µM | TGI (SK-MEL-2 melanoma): > 100 µM | TGI (KM20L2 colon): > 100 µM | TGI (HT29 colon): > 100 µM | TGI (RPMI-8226 leukemia): > 100 µM | TGI (786-0 renal): > 100 µM | TGI (UACC-257 melanoma): > 100 µM | TGI (RXF-631 renal): > 100 µM | TGI (SNB-75 CNS): > 100 µM | TGI (CCRF-CEM leukemia): > 100 µM | TGI (ACHN renal): > 100 µM | TGI (COLO 205 colon): > 100 µM | TGI (OVCAR-4 ovarian): > 100 µM | TGI (U251 CNS): > 100 µM | TGI (A498 renal): > 100 µM | TGI (LOX IMVI melanoma): > 100 µM | TGI (LXFL 529 NSCLC): > 100 µM | TGI (RXF 393 renal): > 100 µM | TGI (HOP-62 NSCLC): > 100 µM | TGI (NCI-H226 lung): > 100 µM | TGI (HL-60(TB) leukemia): > 100 µM | TGI (CAKI-1 renal): > 100 µM | TGI (HOP-18 NSCLC): > 100 µM | TGI (IGROV1 ovarian): > 100 µM | TGI (MOLT-4 leukemia): > 100 µM | TGI (SW-620 colon): > 100 µM | TGI (A549 NSCLC): > 100 µM | TGI (HCT-15 colon): > 100 µM | TGI (UO-31 renal): > 100 µM | TGI (SK-MEL-28 melanoma): > 100 µM | TGI (MALME-3M melanoma): > 100 µM | TGI (OVCAR-5 ovarian): > 100 µM | TGI (SF-539 CNS): > 100 µM | TGI (EKVX NSCLC): > 100 µM | TGI (NCI-H23 lung): > 100 µM | TGI (SN12C renal): > 100 µM

CCOC(=O)/C(=C/c1ccc(C(F)(F)F)cc1)N(CC)CC
TGI (TK-10 renal): > 100 µM | TGI (NCI-H460 lung): > 100 µM | TGI (OVCAR-8 ovarian): > 100 µM | TGI (M14 melanoma): > 100 µM | TGI (SK-OV-3 ovarian): > 100 µM | TGI (SF-295 CNS): > 100 µM | TGI (NCI-H522 lung): > 100 µM | TGI (KM12 colon): > 100 µM | TGI (K-562 leukemia): > 100 µM | TGI (DMS 114 small cell lung): > 100 µM | TGI (SNB-78 CNS): > 100 µM | TGI (UACC-62 melanoma): > 100 µM | TGI (SF-268 CNS): > 100 µM | TGI (XF 498 CNS): > 100 µM | TGI (SK-MEL-5 melanoma): > 100 µM | TGI (HOP-92 NSCLC): > 100 µM | TGI (SK-MEL-2 melanoma): > 100 µM | TGI (HT29 colon): > 100 µM | TGI (RPMI-8226 leukemia): > 100 µM | TGI (786-0 renal): > 100 µM | TGI (UACC-257 melanoma): > 100 µM | TGI (RXF-631 renal): > 100 µM | TGI (SNB-75 CNS): > 100 µM | TGI (CCRF-CEM leukemia): > 100 µM | TGI (ACHN renal): > 100 µM | TGI (COLO 205 colon): > 100 µM | TGI (OVCAR-4 ovarian): > 100 µM | TGI (U251 CNS): > 100 µM | TGI (A498 renal): > 100 µM | TGI (LOX IMVI melanoma): > 100 µM | TGI (LXFL 529 NSCLC): > 100 µM | TGI (HOP-62 NSCLC): > 100 µM | TGI (NCI-H226 lung): > 100 µM | TGI (HL-60(TB) leukemia): > 100 µM | TGI (CAKI-1 renal): > 100 µM | TGI (HOP-18 NSCLC): > 100 µM | TGI (SR leukemia): > 100 µM | TGI (IGROV1 ovarian): > 100 µM | TGI (MOLT-4 leukemia): > 100 µM | TGI (HCC-2998 colon): > 100 µM | TGI (HCT-116 colon): > 100 µM | TGI (SW-620 colon): > 100 µM | TGI (A549 NSCLC): > 100 µM | TGI (HCT-15 colon): > 100 µM | TGI (UO-31 renal): > 100 µM | TGI (SK-MEL-28 melanoma): > 100 µM | TGI (MALME-3M melanoma): > 100 µM | TGI (OVCAR-5 ovarian): > 100 µM | TGI (SF-539 CNS): > 100 µM | TGI (DLD-1 colon): > 100 µM | TGI (EKVX NSCLC): > 100 µM | TGI (NCI-H23 lung): > 100 µM | TGI (SN12C renal): > 100 µM

Cn1c(=O)nc2n(-c3cccc(Cl)c3)c3ccccc3nc-2c1=O
TGI (TK-10 renal): 73.6 µM | TGI (NCI-H460 lung): 26.2 µM | TGI (OVCAR-8 ovarian): 78.1 µM | TGI (DMS 273 small cell lung): 25.1 µM | TGI (M14 melanoma): 24 µM | TGI (SK-OV-3 ovarian): > 100 µM | TGI (SF-295 CNS): 62.1 µM | TGI (NCI-H522 lung): 30.7 µM | TGI (KM12 colon): 44.9 µM | TGI (K-562 leukemia): 38.2 µM | TGI (DMS 114 small cell lung): 20 µM | TGI (SNB-78 CNS): 57.7 µM | TGI (UACC-62 melanoma): 6.36 µM | TGI (SF-268 CNS): > 100 µM | TGI (XF 498 CNS): 35.3 µM | TGI (SK-MEL-5 melanoma): 25.2 µM | TGI (OVCAR-3 ovarian): 6.61 µM | TGI (SK-MEL-2 melanoma): 40.7 µM | TGI (KM20L2 colon): 23.8 µM | TGI (HT29 colon): 21.4 µM | TGI (RPMI-8226 leukemia): 51 µM | TGI (786-0 renal): > 100 µM | TGI (UACC-257 melanoma): 23.8 µM | TGI (RXF-631 renal): 40.8 µM | TGI (SNB-75 CNS): 51.8 µM | TGI (CCRF-CEM leukemia): 50.5 µM | TGI (ACHN renal): 29.8 µM | TGI (COLO 205 colon): 16 µM | TGI (OVCAR-4 ovarian): 24.6 µM | TGI (U251 CNS): 37.7 µM | TGI (A498 renal): 79.3 µM | TGI (LOX IMVI melanoma): 59.8 µM | TGI (LXFL 529 NSCLC): 72.8 µM | TGI (RXF 393 renal): 83.3 µM | TGI (HOP-62 NSCLC): 90.9 µM | TGI (NCI-H226 lung): 74.9 µM | TGI (CAKI-1 renal): 70 µM | TGI (HOP-18 NSCLC): 85.5 µM | TGI (IGROV1 ovarian): 54 µM | TGI (MOLT-4 leukemia): 42 µM | TGI (HCC-2998 colon): 25.6 µM | TGI (HCT-116 colon): 30.8 µM | TGI (SW-620 colon): 25 µM | TGI (A549 NSCLC): 33 µM | TGI (HCT-15 colon): 30.2 µM | TGI (UO-31 renal): > 100 µM | TGI (MALME-3M melanoma): 12.3 µM | TGI (OVCAR-5 ovarian): 40.8 µM | TGI (SF-539 CNS): 33 µM | TGI (EKVX NSCLC): 26.9 µM | TGI (NCI-H23 lung): 21.9 µM | TGI (SN12C renal): 28.5 µM
